Where two headings read alike, the source gives them in different places.
Assays:
recombinant 15-PGDH [1] = molecular target: T1, recombinant 15-PGDH (Homo sapiens (Human), UniProt P15428); assay: Inhibition of enzymatic activity of recombinant 15-PGDH in vitro (NADH generation); format: biochemical
mice = assay: Homing of CFSE labeled donor bone marrow cells in lethally irradiated mice; format: in vivo, mouse
Experimental: Drugs are administered following radiation, following the transplant, and again at 8 hours after the transplant.

bone marrow = assay: Hematopoietic colonies from wild-type mouse bone marrow treated ex vivo; format: cell-based; conditions: 1 uM, ex vivo on ice 2 hours
Excerpt: Treated marrow is again then plated into methylcellulose for counting of hematopoietic colonies.

A549 cells = assay: PGE2 in medium of IL1-beta stimulated A549 cells; format: cell-based; conditions: for induction of PGE2 compared with SW033291: 4 nM to 2500 nM; for rank of PGE2 level in medium: 100 nM drug
[2] = system: 15-PGDH-luciferase fusion reporter in V9m, LS174T and V503 cells; assay: 15-PGDH-luciferase fusion reporter induction in colon cancer cell lines; format: cell-based; conditions: for luciferase activity, in words: V9m, LS174T, V503
recombinant 15-PGDH [3] = molecular target: T1, recombinant 15-PGDH; assay: Melting temperature shift of recombinant 15-PGDH (SYPRO Orange); format: binding
15-PGDH mRNA = 15-PGDH mRNA by real-time PCR in colon cancer cell lines; format: cell-based; conditions: treated colon cancer cell lines
Excerpt: In these studies parental cell lines (not containing the 15-PGDH-luciferase reporter) are employed.

[4] = read-out: Enzyme Inhibitor IC50 (nM) at 5 nM 15-PGDH, 5 nM recombinant human 15-PGDH

T1 sequence (P15428 whole entry): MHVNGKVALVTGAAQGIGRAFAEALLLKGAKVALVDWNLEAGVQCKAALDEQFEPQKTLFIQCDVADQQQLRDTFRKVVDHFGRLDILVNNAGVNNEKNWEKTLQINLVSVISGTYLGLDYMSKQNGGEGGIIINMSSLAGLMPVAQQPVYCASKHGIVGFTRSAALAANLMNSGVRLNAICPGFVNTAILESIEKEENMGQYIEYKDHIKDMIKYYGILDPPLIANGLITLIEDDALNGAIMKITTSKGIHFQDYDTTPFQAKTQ

Molecule | IC50 (recombinant 15-PGDH [1]; [4]) | further results
CCCCSc1ncccc1N [SW208068] | > 7500 nM | –
COc1ccc2c(c1)c(CC(=O)O)c(C)n2C(=O)c1ccc(Cl)cc1 [indomethacin, reference compound] | – | effect of co-treatment on the homing effect of SW033291 (mice; with SW033291 10 mg/kg IP): near completely blocked
CC(C)[S+]([O-])c1sc2nc(-c3nccs3)cc(-c3cccnc3)c2c1N (stereo not drawn) [SW208778] | 3.99 nM | –
CC(=O)OCCCC[S+]([O-])c1sc2nc(-c3cccs3)cc(-c3ccccc3)c2c1N (stereo not drawn) [SW209129, 4-((3-amino-4-phenyl-6-(thiophen-2-yl)thieno[2,3-b]pyridin-2-yl)sulfinyl)butyl acetate] | 41.5 nM | –
CCCCS(=O)(=O)c1cc2ccc(-c3ccccc3)nc2s1 [SW208434] | > 2500 nM | –
CCCCC(C)(C)[C@H](O)/C=C/[C@H]1[C@H](O)CC(=O)[C@@H]1C/C=C\CCCC(=O)O [dmPGE2, 16,16-dimethyl PGE2] | – | increase in colonies compared with SW033291 treated marrow, in words (bone marrow): slightly greater increase
CC(C)[S+]([O-])c1sc2nc(-c3nccs3)cc(-c3nccn3C)c2c1N (stereo not drawn) [SW209279, 2-(isopropylsulfinyl)-4-(1-methyl-1H-imidazol-2-yl)-6-(thiazol-2-yl)thieno[2,3-b]pyridin-3-amine] | 4.18 nM | –
CCCC[S+]([O-])c1sc2nc(-c3nccs3)cc(-c3nccs3)c2c1N (stereo not drawn) [SW209124, 2-(butylsulfinyl)-4,6-di(thiazol-2-yl)thieno[2,3-b]pyridin-3-amine] | – | induction of PGE2 compared with SW033291 (A549 cells): increased activity relative to SW033291
CCCC[S+]([O-])c1sc2nc(-c3ccccc3)nc(-c3ccccc3)c2c1N (stereo not drawn) [SW208065] | – | Concentration for Full Cell Line Reporter Induction ([2]; maximal induction of reporter): ~100 nM; Δ Tm (NADH) (recombinant 15-PGDH [3]; shift in melting temperature, cofactor NADH present): 13 °C
CC(=O)OCCC[S+]([O-])c1sc2nc(-c3cccs3)cc(-c3ccccc3)c2c1N (stereo not drawn) [SW209273, 3-((3-amino-4-phenyl-6-(thiophen-2-yl)thieno[2,3-b]pyridin-2-yl)sulfinyl)propyl acetate] | 21.6 nM | –
CCCC[S+]([O-])c1sc2nc(-c3nccs3)c(C(=O)OCC)c(-c3ccc(Br)cc3)c2c1N (stereo not drawn) [SW209123, Ethyl 3-amino-4-(4-bromophenyl)-2-(butylsulfinyl)-6-(thiazol-2-yl)thieno[2,3-b]pyridine-5-carboxylate] | 40.8 nM | –
CCC[S+]([O-])c1sc2nc(-c3nccs3)cc(-c3nccn3C)c2c1N (stereo not drawn) [SW209280, 4-(1-methyl-1H-imidazol-2-yl)-2-(propylsulfinyl)-6-(thiazol-2-yl)thieno[2,3-b]pyridin-3-amine] | 3.73 nM | –
CCCC[S+]([O-])c1sc2nc(-c3nccs3)cc(-c3nccn3C)c2c1N (stereo not drawn) [SW209125, 2-(butylsulfinyl)-4-(1-methyl-1H-imidazol-2-yl)-6-(thiazol-2-yl)thieno[2,3-b]pyridin-3-amine] | – | induction of PGE2 compared with SW033291 (A549 cells): increased activity relative to SW033291
CS(=O)(=O)c1sc2nc(-c3cccs3)cc(-c3ccccc3)c2c1N [SW033290] | 525 nM | –
O=C(c1ccc2nc(-c3ccccc3)c(-c3ccccc3)nc2c1)N1CCCCC1 [SW145753] | – | luciferase activity, in words [2]: increase luciferase activity; 15-PGDH mRNA levels (15-PGDH mRNA): do not in general alter 15-PGDH mRNA levels; 15-PGDH activity in cells as reflected in PGE2 levels (A549 cells; IL1-beta 23 hours, compound for last 5 hours): clear inhibition of 15-PGDH activity
CCCC[S+]([O-])c1sc2nc(-c3nccs3)cc(-c3cnc(C)n3C)c2c1N (stereo not drawn) [SW209415, 2-(butylsulfinyl)-4-(1,2-dimethyl-1H-imidazol-5-yl)-6-(thiazol-2-yl)thieno[2,3-b]pyridin-3-amine] | – | increase of homed donor cells in recipient bone marrow (mice; 10 mg/kg IP, FIG. 140): approximately 2.5 fold; share of 15-PGDH inhibitory activity due to the (+) optical isomer (recombinant 15-PGDH [1]): at least 98%
(−) SW209415 | – | IC50 (recombinant 15-PGDH [1]; FIG. 135, read-out: IC50): 164 nM

Molecule | IC50 (recombinant 15-PGDH [1]; [4]) | further results
COc1ccc(OC)c(N(CC(=O)Nc2cccnc2)S(=O)(=O)c2ccccc2)c1 [SW054384] | – | concentration of maximum activity [2]: 6.25 µM; luciferase activity, in words [2]: increase luciferase activity; direct binding to 15-PGDH, in words (recombinant 15-PGDH [3]; melting temperature shift, cofactor 10 μM and 100 μM): cannot be demonstrated to bind; 15-PGDH mRNA levels (15-PGDH mRNA): do not in general alter 15-PGDH mRNA levels; PGE2 level (A549 cells; compound from 24 hours before IL1-beta, maintained next 26 hours): lower level of PGE2
CCCCSc1cc2ccc(-c3ccccc3)nc2s1 [SW208430, 2-(butylthio)-6-phenylthieno[2,3-b]pyridine] | > 2500 nM | –
CCCC[S+]([O-])c1sc2nc(-c3nccs3)cc(-c3ccccc3)c2c1N (stereo not drawn) [SW208066] | – | rank of PGE2 level in medium (A549 cells): highest levels of PGE2
Nc1c([S+]([O-])CCCCO)sc2nc(-c3cccs3)cc(-c3ccccc3)c12 (stereo not drawn) [SW209271, 4-((3-amino-4-phenyl-6-(thiophen-2-yl)thieno[2,3-b]pyridin-2-yl)sulfinyl)butan-1-ol] | 34.2 nM | –
4-((3-amino-4-phenyl-6-(thiophen-2-yl)thieno[2,3-b]pyridin-2-yl)sulfonyl)butyl acetate [SW209128] | 4910 nM | –
CCCC[S+]([O-])c1sc2nc(-c3cccs3)nc(-c3ccccc3)c2c1N (stereo not drawn) [SW208067] | – | rank of PGE2 level in medium (A549 cells): highest levels of PGE2
CCCC[S+]([O-])c1ncccc1N (stereo not drawn) [SW208070] | > 7500 nM | –
CCCC[S+]([O-])c1cc2ccc(-c3ccccc3)nc2s1 (stereo not drawn) [SW208432, 2-(butylsulfinyl)-6-phenylthieno[2,3-b]pyridine] | 3.53 nM | –
CCCC[S+]([O-])c1sc2nc(-c3cccs3)cc(-c3ccc(Br)cc3)c2c1N (stereo not drawn) [SW208199] | 2.9 nM | –
CCCC[S+]([O-])c1sc2nc(-c3cccs3)cc(C)c2c1N (stereo not drawn) [SW208488, 2-(butylsulfinyl)-4-methyl-6-(thiophen-2-yl)thieno[2,3-b]pyridin-3-amine] | 1.43 nM | –
CCCCSc1sc2nc(-c3ccccc3)ccc2c1N [SW208435, 2-(butylthio)-6-phenylthieno[2,3-b]pyridin-3-amine] | > 2500 nM | –
Nc1c([S+]([O-])CCCCCl)sc2nc(-c3cccs3)cc(-c3ccccc3)c12 (stereo not drawn) [SW209329, 2-((4-chlorobutyl)sulfinyl)-4-phenyl-6-(thiophen-2-yl)thieno[2,3-b]pyridin-3-amine] | 4.36 nM | –
CCCCC[C@H](O)/C=C/[C@H]1[C@H](O)CC(=O)[C@@H]1C/C=C\CCCC(=O)O [PGE2] | – | increase in colonies compared with SW033291 treated marrow, in words (bone marrow): lesser increase
CCCC[S+]([O-])CSc1nc(-c2nccs2)cc(-c2nccn2C)c1C#N (stereo not drawn) [SW209427] | 1480 nM | –
CCCCS(=O)(=O)c1sc2nc(-c3nccs3)cc(-c3ccc(CO)cc3)c2c1N [SW209333] | > 2500 nM | –
CC(=O)OCCCS(=O)(=O)c1sc2nc(-c3cccs3)cc(-c3ccccc3)c2c1N [SW209272, 3-((3-amino-4-phenyl-6-(thiophen-2-yl)thieno[2,3-b]pyridin-2-yl)sulfonyl)propyl acetate] | 530 nM | –
CCCCSc1nc2nc(-c3cccs3)ccc2[nH]1 [SW208494, 2-(butylthio)-5-(thiophen-2-yl)-3H-imidazo[4,5-b]pyridine] | > 7500 nM | –

— patent US20230285402A1, “Compositions and Methods of Modulating Short-Chain Dehydrogenase Activity” (BOARD OF REGENTS OF THE UNIVERSITY OF TEXAS SYSTEM, priority 2013, published 2023)
